Laboratory results reported in publication PMC10673995, “Discovery of a novel cardiac-specific myosin modulator using artificial intelligence-based virtual screening” (Nature Communications, 2023).
Values joined by “and” are separate entries in the source; they are usually repeats but may differ in a detail not shown here. Identical values can stand only once.

Tested on: isolated Langendorff-perfused rat hearts
Assay: Langendorff-perfused rat hearts, haemodynamic parameters
Design: key to LVSP, individual hearts / LVEDP, individual hearts: pressure in mmHg; Max (Figure 5c): unit not given here
Conditions: for Max (Figure 5c): one column per heart; for LVSP representative trace, ON: during perfusion with compound
Protocol: Next, we tested for the functional effects of F10 in isolated Langendorff-perfused rat hearts. Hearts were initially stabilized in modified Krebs-Henseleit (KH) solution for about 25–30 min and subsequently perfused with KH solution containing 20 μmol L^−1 F10 for 5 mins to reach a new steady state.
Rat hearts were Langendorff-perfused as described previously. Briefly, Wistar rats (Rattus norvegicus, male, 200–250 g, 7 weeks old) were anesthetized by injection of 0.9 mL sodium pentobarbitone 20% (w/v). […] The aorta was cannulated and secured with sutures (Mersilk 3‐0; Ethicon, Somerville, NJ, USA). Hearts were perfused at a constant perfusion pressure of 70 ± 2 mmHg using a peristaltic pump (Gilson Minipuls 4, Middleton, WI, USA) and a feedback control system (STH Pump Controller; AD Instruments, Oxford, UK). […] A fluid‐filled balloon, attached to a pressure transducer, was inserted into the left ventricle and inflated to give an end‐diastolic pressure between 3 and 8 mmHg. Left ventricular pressure (LVP), perfusion pressure, coronary flow and arterial and venous oxygen tensions were recorded using a PowerLab recorder and LabChart 8.0 software (ADInstruments). Functional parameters were averaged for ∼80 cardiac cycles at 5 min intervals.

[1] = 20 μmol L^−1 F10 or 1 μmol L^−1 Mavacamten
[2] = Time 11 min, during perfusion with 20 μmol L^−1 F10 or 1 μmol L^-1 Mavacamten
[3] = Time 12 min, during perfusion with 20 μmol L^−1 F10 or 1 μmol L^-1 Mavacamten
[4] = Time 13 min, during perfusion with 20 μmol L^−1 F10 or 1 μmol L^-1 Mavacamten
[5] = Time 14 min, during perfusion with 20 μmol L^−1 F10 or 1 μmol L^-1 Mavacamten
[6] = Time 15 min, during perfusion with 20 μmol L^−1 F10 or 1 μmol L^-1 Mavacamten

Structure (SMILES): CC(C)n1c(=O)cc(N[C@@H](C)c2ccccc2)[nH]c1=O [Mavacamten]
- effect on coronary perfusion / coronary flow [1]: without affecting
- effect on heart rate [1]: without affecting
- effect on left ventricular end-diastolic pressure (LVEDP) [1]: did not affect
- Max (Figure 5c) (Time 0 min): 3876.58 and 5238.56 and 5331.08 and 5274.63
- Max (Figure 5c) (Time 1 min): 3763.48 and 5575.44 and 5372.46 and 4664.37
- Max (Figure 5c) (Time 2 min): 3604.67 and 5570.63 and 5457.56 and 4849.22
- Max (Figure 5c) (Time 3 min): 3616.7 and 5958.05 and 5555.1 and 4920.12
- Max (Figure 5c) (Time 4 min): 3720.17 and 5852.17 and 5485.6 and 4634
- Max (Figure 5c) (Time 5 min): 3611.89 and 6003.77 and 5528.57 and 4575.4
- Max (Figure 5c) (Time 6 min): 3669.64 and 6398.4 and 5572.15 and 4575.4
- Max (Figure 5c) (Time 7 min): 3638.35 and 5690.95 and 5454.91 and 4575.4
- Max (Figure 5c) (Time 8 min): 3568.57 and 5926.76 and 5613.04 and 4575.4
- Max (Figure 5c) (Time 9 min): 3638.35 and 6073.55 and 6702.43 and 4575.4
- Max (Figure 5c) (Time 10 min): 3558.95 and 6376.75 and 5920.41 and 4694.75
- LVEDP, individual hearts [2]: 1 mmHg (2×) and 2 mmHg (2×) and 3 mmHg
- LVSP, individual hearts [2]: 91 and 157 and 150 and 205 and 152
- Max (Figure 5c) (Time 11 min): 3462.69 and 5852.17 and 5171.55 and 4904.93
- LVEDP, individual hearts [3]: 0 and 1 (2×) and 2 and 3
- LVSP, individual hearts [3]: 71 and 113 and 134 and 163 and 147
- Max (Figure 5c) (Time 12 min): 2779.3 and 4057.05 and 4519.31 and 4773.25
- LVEDP, individual hearts [4]: 0 and 1 (2×) and 3 and 5
- LVSP, individual hearts [4]: 60 and 95 and 115 and 137 and 135
- Max (Figure 5c) (Time 13 min): 2415.94 and 3070.46 and 3716.1 and 3709.72
- LVEDP, individual hearts [5]: 0 and 1 (2×) and 2 and 5
- LVSP, individual hearts [5]: 51 and 81 and 104 and 115 and 105
- Max (Figure 5c) (Time 14 min): 2076.65 and 2695.08 and 3441.74 and 3481.82
- LVEDP, individual hearts [6]: 0 and 1 (2×) and 2 and 7
- LVSP, individual hearts [6]: 45 and 71 and 97 and 99 and 100
- Max (Figure 5c) (Time 15 min): 1876.93 and 2447.23 and 3260.21 and 3233.66
- LVEDP, individual hearts (Time 16 min, after washout): 0 and 1 (2×) and 3 and 5
- LVSP, individual hearts (Time 16 min, after washout): 44 and 65 and 100 and 90 and 98
- LVEDP, individual hearts (Time 17 min, after washout): 0 and 1 (2×) and 3 and 2
- LVSP, individual hearts (Time 17 min, after washout): 49 and 71 and 103 and 101 and 98
- LVEDP, individual hearts (Time 18 min, after washout): 1 mmHg (4×) and 3 mmHg
- LVSP, individual hearts (Time 18 min, after washout): 52 and 78 and 106 and 103 and 96
- LVEDP, individual hearts (Time 19 min, after washout): 1 mmHg (4×) and 2 mmHg
- LVSP, individual hearts (Time 19 min, after washout): 55 and 83 and 109 (2×) and 98
- LVEDP, individual hearts (Time 20 min, after washout): 1 mmHg (3×) and 2 mmHg (2×)
- LVSP, individual hearts (Time 20 min, after washout): 58 and 87 and 114 (2×) and 98
- Max (Figure 5c) (Time 20 min): 2218.63 and 2954.96 and 3682.2 and 4327.58
- LVEDP, individual hearts (Time 21 min, after washout): 1 mmHg (3×) and 2 mmHg (2×)
- LVSP, individual hearts (Time 21 min, after washout): 60 and 101 (2×) and 118 (2×)
- Max (Figure 5c) (Time 21 min): 2317.29 and 3027.15 and 3768.27 and 4469.39
- LVEDP, individual hearts (Time 22 min, after washout): 1 mmHg (4×) and 0 mmHg
- LVSP, individual hearts (Time 22 min, after washout): 63 and 96 and 122 and 121 and 125
- Max (Figure 5c) (Time 22 min): 2358.19 and 3503.6 and 3945.22 and 4568.14
- LVEDP, individual hearts (Time 23 min, after washout): 1 mmHg (2×) and 0 mmHg and 2 mmHg and 3 mmHg
- LVSP, individual hearts (Time 23 min, after washout): 66 and 99 and 125 and 126 and 103
- Max (Figure 5c) (Time 23 min): 2526.64 and 3729.79 and 4137.98 and 4461.79
- LVEDP, individual hearts (Time 24 min, after washout): 1 mmHg (4×) and 0 mmHg
- LVSP, individual hearts (Time 24 min, after washout): 67 and 106 and 126 and 130 and 104
- Max (Figure 5c) (Time 24 min): 2654.17 and 3905.46 and 4295.47 and 4963.17
- LVEDP, individual hearts (Time 25 min, after washout): 1 and 0 (2×) and 3 and 2
- LVSP, individual hearts (Time 25 min, after washout): 67 and 105 and 127 and 133 and 110
- Max (Figure 5c) (Time 25 min): 2752.83 and 3729.79 and 4394.02 and 5097.38
- LVSP representative trace, OFF (after washout, t 0 s): 97.9459 mmHg
- LVSP representative trace, OFF (after washout, t 10 s): 98.66 mmHg
- LVSP representative trace, OFF (after washout, t 20 s): 99.4941 mmHg
- LVSP representative trace, OFF (after washout, t 30 s): 99.8652 mmHg
- LVSP representative trace, OFF (after washout, t 40 s): 99.9074 mmHg
- LVSP representative trace, OFF (after washout, t 50 s): 100.799 mmHg
- LVSP representative trace, OFF (after washout, t 60 s): 101.94 mmHg
- LVSP representative trace, OFF (after washout, t 70 s): 102.076 mmHg
- LVSP representative trace, OFF (after washout, t 80 s): 102.473 mmHg
- LVSP representative trace, OFF (after washout, t 90 s): 103.301 mmHg
- LVSP representative trace, OFF (after washout, t 100 s): 104.178 mmHg
- LVSP representative trace, OFF (after washout, t 110 s): 104.015 mmHg
- LVSP representative trace, OFF (after washout, t 120 s): 104.172 mmHg
- LVSP representative trace, OFF (after washout, t 130 s): 104.333 mmHg
- LVSP representative trace, OFF (after washout, t 140 s): 104.863 mmHg
- LVSP representative trace, OFF (after washout, t 150 s): 105.62 mmHg
- LVSP representative trace, OFF (after washout, t 160 s): 106.146 mmHg
- LVSP representative trace, OFF (after washout, t 170 s): 107.035 mmHg
- LVSP representative trace, OFF (after washout, t 180 s): 107.188 mmHg
- LVSP representative trace, OFF (after washout, t 190 s): 108.073 mmHg
- LVSP representative trace, OFF (after washout, t 200 s): 108.759 mmHg
- LVSP representative trace, OFF (after washout, t 210 s): 109.171 mmHg
- LVSP representative trace, OFF (after washout, t 220 s): 109.899 mmHg
- LVSP representative trace, OFF (after washout, t 230 s): 110.383 mmHg
- LVSP representative trace, OFF (after washout, t 240 s): 111.699 mmHg
- LVSP representative trace, OFF (after washout, t 250 s): 111.591 mmHg
- LVSP representative trace, OFF (after washout, t 260 s): 112.354 mmHg
- LVSP representative trace, OFF (after washout, t 270 s): 113.909 mmHg
- LVSP representative trace, OFF (after washout, t 280 s): 115.189 mmHg
- LVSP representative trace, OFF (after washout, t 290 s): 115.643 mmHg
- LVSP representative trace, OFF (after washout, t 300 s): 115.694 mmHg
- LVSP representative trace, OFF (after washout, t 310 s): 117.014 mmHg
- LVSP representative trace, OFF (after washout, t 320 s): 117.329 mmHg
- LVSP representative trace, OFF (after washout, t 330 s): 117.56 mmHg
- LVSP representative trace, OFF (after washout, t 340 s): 118.377 mmHg
- LVSP representative trace, OFF (after washout, t 350 s): 118.795 mmHg
- LVSP representative trace, OFF (after washout, t 360 s): 118.884 mmHg
- LVSP representative trace, OFF (after washout, t 370 s): 120.043 mmHg
- LVSP representative trace, OFF (after washout, t 380 s): 121.007 mmHg
- LVSP representative trace, OFF (after washout, t 390 s): 121.543 mmHg
- LVSP representative trace, OFF (after washout, t 400 s): 122.385 mmHg
- LVSP representative trace, ON (t 0 s): 185.674 mmHg
- LVSP representative trace, ON (t 10 s): 179.044 mmHg
- LVSP representative trace, ON (t 20 s): 172.645 mmHg
- LVSP representative trace, ON (t 30 s): 172.645 mmHg
- LVSP representative trace, ON (t 40 s): 172.645 mmHg
- LVSP representative trace, ON (t 50 s): 163.036 mmHg
- LVSP representative trace, ON (t 60 s): 160.436 mmHg
- LVSP representative trace, ON (t 70 s): 155.482 mmHg
- LVSP representative trace, ON (t 80 s): 149.519 mmHg
- LVSP representative trace, ON (t 90 s): 144.889 mmHg
- LVSP representative trace, ON (t 100 s): 139.74 mmHg
- LVSP representative trace, ON (t 110 s): 137.111 mmHg
- LVSP representative trace, ON (t 120 s): 131.856 mmHg
- LVSP representative trace, ON (t 130 s): 128.177 mmHg
- LVSP representative trace, ON (t 140 s): 123.963 mmHg
- LVSP representative trace, ON (t 150 s): 121.031 mmHg
- LVSP representative trace, ON (t 160 s): 117.5 mmHg
- LVSP representative trace, ON (t 170 s): 114.951 mmHg
- LVSP representative trace, ON (t 180 s): 110.93 mmHg
- LVSP representative trace, ON (t 190 s): 108.804 mmHg
- LVSP representative trace, ON (t 200 s): 106.216 mmHg
- LVSP representative trace, ON (t 210 s): 103.076 mmHg
- LVSP representative trace, ON (t 220 s): 101.63 mmHg
- LVSP representative trace, ON (t 230 s): 99.0368 mmHg
- LVSP representative trace, ON (t 240 s): 96.0294 mmHg
- LVSP representative trace, ON (t 250 s): 94.9632 mmHg
- LVSP representative trace, ON (t 260 s): 93.4811 mmHg
- LVSP representative trace, ON (t 270 s): 90.0331 mmHg
- LVSP representative trace, ON (t 280 s): 88.9689 mmHg
